These are literature values, as cited in patent US9308169B2, “Microspheres for active embolization” (Biosphere Medical, Inc., priority 2000, dated 2016).

The conditions of this series: effect of the spacer / dangling cationic head of the transfection agent; general statement, no test described.

For the molecule `CCCCCCCC/C=C\CCCCCCCC(=O)OC[C@H](COC(=O)CCC(=O)OCC[N+](C)(C)C)OC(=O)CCCCCCC/C=C\CCCCCCCC` [DOSC], the transfection efficiency result was “best transfection efficiency”. As for `CCCCCCCC/C=C\CCCCCCCC(=O)OC[C@H](COC(=O)CCC[N+](C)(C)C)OC(=O)CCCCCCC/C=C\CCCCCCCC` [DOTB], the transfection efficiency entry is given as “best transfection efficiency”.
